Data as given in patent US12378224B2 (Dong-A Socio Holdings Co., Ltd., priority 2016, dated 2025).

Each molecule was assayed against human MER (528-end) (Homo sapiens (Human), UniProt Q12866) (assay: HTRF Kinase Activity Biochemical Assay (KinEASE-TK)). Conditions: 10 uM ATP.
Outline: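 Activity read-out is the HTRF ratio (665 nm over 620 nm emission, ×10,000; excitation 340 nm) after 1 h detection with 0.375 nM Eu3+-cryptate anti-TK antibody plus 0.062 uM SA-XL665. Preceding kinase step: human MER (528-end), biotinylated TK substrate, 1 h, room temperature.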

human MER (528-end), sequence (Q12866 528-999 limits assumed): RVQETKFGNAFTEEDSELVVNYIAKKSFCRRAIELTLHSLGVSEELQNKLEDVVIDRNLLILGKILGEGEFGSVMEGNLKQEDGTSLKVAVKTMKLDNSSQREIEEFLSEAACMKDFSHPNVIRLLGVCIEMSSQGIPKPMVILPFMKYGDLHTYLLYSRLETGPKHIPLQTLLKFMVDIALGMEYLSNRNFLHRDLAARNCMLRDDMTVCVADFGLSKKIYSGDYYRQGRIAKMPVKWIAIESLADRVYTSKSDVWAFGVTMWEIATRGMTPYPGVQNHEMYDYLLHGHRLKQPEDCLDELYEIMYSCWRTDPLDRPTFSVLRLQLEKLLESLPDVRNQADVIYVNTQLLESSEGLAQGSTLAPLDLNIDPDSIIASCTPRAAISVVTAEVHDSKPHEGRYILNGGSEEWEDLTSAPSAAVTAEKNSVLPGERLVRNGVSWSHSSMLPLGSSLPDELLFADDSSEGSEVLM

IC50, 0.1 to 1 µM:
Cn1cc(-c2cnc(N)c(C(=O)N[C@@H]3CCN(C(=O)c4ccc(-c5ccc(C(C)(C)N6CCN(CCO)CC6)cc5)cc4)C3)c2)cn1 [Example 387, (R)-2-amino-N-(1-(4′-(2-(4-(2-hydroxyethyl)piperazin-1-yl)propan-2-yl)-[1,1′-biphenyl]-4-carbonyl)pyrrolidin-3-yl)-5-(1-methyl-1H-pyrazol-4-yl)nicotinamide]
CN1CCN(Cc2cccc(-c3ccc(C(=O)N4CC[C@@H](NC(=O)c5cc(-c6cnn(C)c6)cnc5N)C4)cc3)c2)CC1 [Example 388, (R)-2-amino-5-(1-methyl-1H-pyrazol-4-yl)-N-(1-(3′-((4-methylpiperazin-1-yl)methyl)-[1,1′-biphenyl]-4-carbonyl)pyrrolidin-3-yl)nicotinamide]
Cn1cc(-c2cnc(N)c(C(=O)N[C@@H]3CCN(C(=O)c4ccc(-c5cccc(CN6CCN(CCO)CC6)c5)cc4)C3)c2)cn1 [Example 389, (R)-2-amino-N-(1-(3′-((4-(2-hydroxyethyl)piperazin-1-yl)methyl)-[1,1′-biphenyl]-4-carbonyl)pyrrolidin-3-yl)-5-(1-methyl-1H-pyrazol-4-yl)nicotinamide]
Cn1cc(-c2cnc(N)c(C(=O)N[C@@H]3CCN(C(=O)c4ccc(-c5ccccc5Cl)cn4)C3)c2)cn1 [Example 395, (R)-2-amino-N-(1-(5-(2-chlorophenyl)picolinoyl)pyrrolidin-3-yl)-5-(1-methyl-1H-pyrazol-4-yl)nicotinamide]
Cn1cc(-c2cnc(N)c(C(=O)N[C@@H]3CCN(C(=O)c4ccc(-c5ccccc5Cl)nc4)C3)c2)cn1 [Example 397, (R)-2-amino-N-(1-(6-(2-chlorophenyl)nicotinoyl)pyrrolidin-3-yl)-5-(1-methyl-1H-pyrazol-4-yl)nicotinamide]
Cc1cc(C(=O)N2CC[C@@H](NC(=O)c3cc(-c4cnn(C)c4)cnc3N)C2)ccc1-c1ccccc1 [Example 399, (R)-2-amino-5-(1-methyl-1H-pyrazol-4-yl)-N-(1-(2-methyl-[1,1′-biphenyl]-4-carbonyl)pyrrolidin-3-yl)nicotinamide]
Cn1cc(-c2cnc(N)c(C(=O)N[C@@H]3CCN(C(=O)c4ccc5ccccc5c4)C3)c2)cn1 [Example 405, (R)—N-(1-(2-naphthoyl)pyrrolidin-3-yl)-2-amino-5-(1-methyl-1H-pyrazol-4-yl)nicotinamide]
Cn1cc(-c2cnc(N)c(C(=O)N[C@@H]3CCN(C(=O)c4cc5ccccc5s4)C3)c2)cn1 [Example 406, (R)-2-amino-N-(1-(benzo[b]thiophene-2-carbonyl)pyrrolidin-3-yl)-5-(1-methyl-1H-pyrazol-4-yl)nicotinamide]
Cn1cc(-c2cnc(N)c(C(=O)N[C@@H]3CCN(C(=O)c4ccc(OCc5ccccc5)cc4)C3)c2)cn1 [Example 410, (R)-2-amino-N-(1-(4-(benzyloxy)benzoyl)pyrrolidin-3-yl)-5-(1-methyl-1H-pyrazol-4-yl)nicotinamide]
Cn1cc(-c2cnc(N)c(C(=O)N[C@@H]3CCN(C(=O)/C=C/c4ccc(Br)cc4)C3)c2)cn1 [Example 427, (R,E)-2-amino-N-(1-(3-(4-bromophenyl)acryloyl)pyrrolidin-3-yl)-5-(1-methyl-1H-pyrazol-4-yl)nicotinamide]
CN1CCN(Cc2ccc(/C=C/C(=O)N3CC[C@@H](NC(=O)c4cc(-c5cnn(C)c5)cnc4N)C3)cc2)CC1 [Example 429, (R,E)-2-amino-5-(1-methyl-1H-pyrazol-4-yl)-N-(1-(3-(4-((4-methylpiperazin-1-yl)methyl)phenyl)acryloyl)pyrrolidin-3-yl)nicotinamide]

IC50, > 1 µM:
CN1CCN(Cc2ccc(-c3cccc(C(=O)N4CC[C@@H](NC(=O)c5cc(-c6cnn(C)c6)cnc5N)C4)c3)cc2)CC1 [Example 390, (R)-2-amino-5-(1-methyl-1H-pyrazol-4-yl)-N-(1-(4′-((4-methylpiperazin-1-yl)methyl)-[1,1′-biphenyl]-3-carbonyl)pyrrolidin-3-yl)nicotinamide]
Cn1cc(-c2cnc(N)c(C(=O)N[C@@H]3CCN(C(=O)c4ccc(-c5ccccc5)cn4)C3)c2)cn1 [Example 396, (R)-2-amino-5-(1-methyl-1H-pyrazol-4-yl)-N-(1-(5-phenylpicolinoyl)pyrrolidin-3-yl)nicotinamide]
Cn1cc(-c2cnc(N)c(C(=O)N[C@@H]3CCN(C(=O)c4ccc(I)cc4)C3)c2)cn1 [Example 400, (R)-2-amino-N-(1-(4-iodobenzoyl)pyrrolidin-3-yl)-5-(1-methyl-1H-pyrazol-4-yl)nicotinamide]
Cn1cc(-c2cnc(N)c(C(=O)N[C@@H]3CCN(C(=O)c4cc5ccccc5o4)C3)c2)cn1 [Example 401, (R)-2-amino-N-(1-(benzofuran-2-carbonyl)pyrrolidin-3-yl)-5-(1-methyl-1H-pyrazol-4-yl)nicotinamide]
Cc1c(C(=O)N2CC[C@@H](NC(=O)c3cc(-c4cnn(C)c4)cnc3N)C2)oc2ccccc12 [Example 402, (R)-2-amino-5-(1-methyl-1H-pyrazol-4-yl)-N-(1-(3-methylbenzofuran-2-carbonyl)pyrrolidin-3-yl)nicotinamide]
Cn1cc(-c2cnc(N)c(C(=O)N[C@@H]3CCN(C(=O)c4cc5cc(Cl)ccc5o4)C3)c2)cn1 [Example 403, (R)-2-amino-N-(1-(5-chlorobenzofuran-2-carbonyl)pyrrolidin-3-yl)-5-(1-methyl-1H-pyrazol-4-yl)nicotinamide]
Cn1cc(-c2cnc(N)c(C(=O)N[C@@H]3CCN(C(=O)C4Cc5cc(Cl)ccc5O4)C3)c2)cn1 (stereo partly drawn) [Example 404, 2-amino-N-((3R)-1-(5-chloro-2,3-dihydrobenzofuran-2-carbonyl)pyrrolidin-3-yl)-5-(1-methyl-1H-pyrazol-4-yl)nicotinamide]
Cn1cc(-c2cnc(N)c(C(=O)N[C@@H]3CCN(C(=O)c4cc(Br)c(Br)s4)C3)c2)cn1 [Example 407, (R)-2-amino-N-(1-(4,5-dibromothiophene-2-carbonyl)pyrrolidin-3-yl)-5-(1-methyl-1H-pyrazol-4-yl)nicotinamide]
Cc1ccc(C(=O)N2CC[C@@H](NC(=O)c3cc(-c4cnn(C)c4)cnc3N)C2)s1 [Example 408, (R)-2-amino-5-(1-methyl-1H-pyrazol-4-yl)-N-(1-(5-methylthiophene-2-carbonyl)pyrrolidin-3-yl)nicotinamide]
Cn1cc(-c2cnc(N)c(C(=O)N[C@@H]3CCN(C(=O)c4cccc(Oc5ccccc5)c4)C3)c2)cn1 [Example 412, (R)-2-amino-5-(1-methyl-1H-pyrazol-4-yl)-N-(1-(3-phenoxybenzoyl)pyrrolidin-3-yl)nicotinamide]
Cn1cc(-c2cnc(N)c(C(=O)N[C@@H]3CCN(C(=O)c4ccc(C(C)(C)C)cc4)C3)c2)cn1 [Example 414, (R)-2-amino-N-(1-(4-(tert-butyl)benzoyl)pyrrolidin-3-yl)-5-(1-methyl-1H-pyrazol-4-yl)nicotinamide]
Cc1ccc(C(=O)N2CC[C@@H](NC(=O)c3cc(-c4cnn(C)c4)cnc3N)C2)cc1C [Example 415, (R)-2-amino-N-(1-(3,4-dimethylbenzoyl)pyrrolidin-3-yl)-5-(1-methyl-1H-pyrazol-4-yl)nicotinamide]
CN1CCN(c2ccc(C(=O)N3CC[C@@H](NC(=O)c4cc(-c5cnn(C)c5)cnc4N)C3)cc2)CC1 [Example 416, (R)-2-amino-5-(1-methyl-1H-pyrazol-4-yl)-N-(1-(4-(4-methylpiperazin-1-yl)benzoyl)pyrrolidin-3-yl)nicotinamide]
CC(C)c1ccc(C(=O)N2CC[C@@H](NC(=O)c3cc(-c4cnn(C)c4)cnc3N)C2)cc1 [Example 418, (R)-2-amino-N-(1-(4-isopropylbenzoyl)pyrrolidin-3-yl)-5-(1-methyl-1H-pyrazol-4-yl)nicotinamide]
Cn1cc(-c2cnc(N)c(C(=O)N[C@@H]3CCN(C(=O)c4ccc(C#N)cc4)C3)c2)cn1 [Example 419, (R)-2-amino-N-(1-(4-cyanobenzoyl)pyrrolidin-3-yl)-5-(1-methyl-1H-pyrazol-4-yl)nicotinamide]
CSc1ccc(C(=O)N2CC[C@@H](NC(=O)c3cc(-c4cnn(C)c4)cnc3N)C2)cc1 [Example 420, (R)-2-amino-5-(1-methyl-1H-pyrazol-4-yl)-N-(1-(4-(methylthio)benzoyl)pyrrolidin-3-yl)nicotinamide]
Cn1cc(-c2cnc(N)c(C(=O)N[C@@H]3CCN(C(=O)Cc4ccc(-c5ccccc5)cc4)C3)c2)cn1 [Example 422, (R)—N-(1-(2-([1,1′-biphenyl]-4-yl)acetyl)pyrrolidin-3-yl)-2-amino-5-(1-methyl-1H-pyrazol-4-yl)nicotinamide]
Cn1cc(-c2cnc(N)c(C(=O)N[C@@H]3CCN(C(=O)C=Cc4ccccc4)C3)c2)cn1 [Example 424, (R)-2-amino-N-(1-cinnamoylpyrrolidin-3-yl)-5-(1-methyl-1H-pyrazol-4-yl)nicotinamide]
Cn1cc(-c2cnc(N)c(C(=O)N[C@@H]3CCN(C(=O)/C=C/c4ccc5c(c4)OCO5)C3)c2)cn1 [Example 425, (R,E)-2-amino-N-(1-(3-(benzo[d][1,3]dioxol-5-yl)acryloyl)pyrrolidin-3-yl)-5-(1-methyl-1H-pyrazol-4-yl)nicotinamide]
C/C(=C\c1ccccc1)C(=O)N1CC[C@@H](NC(=O)c2cc(-c3cnn(C)c3)cnc2N)C1 [Example 426, (R,E)-2-amino-5-(1-methyl-1H-pyrazol-4-yl)-N-(1-(2-methyl-3-phenylacryloyl)pyrrolidin-3-yl)nicotinamide]
Cn1cc(-c2cnc(N)c(C(=O)N[C@@H]3CCN(C(=O)/C=C/c4cccc(Br)c4)C3)c2)cn1 [Example 428, (R,E)-2-amino-N-(1-(3-(3-bromophenyl)acryloyl)pyrrolidin-3-yl)-5-(1-methyl-1H-pyrazol-4-yl)nicotinamide]
